Results reported in DBAASP.
Converted amounts (≈) assume the structure as drawn. “And” between values parts separate entries of the source, which are not always exact repeats. Equal values may be shown once. One block for each molecule: values may come before it.

Assays:
Assay in all cases: ≥ marks a high value that may be exact or a test limit, other limits are often not marked, values filed in µg/mL are converted to µM
[1] = tested on: Salmonella enterica subsp. enterica serovar Pullorum ATCC 7913
[2] = tested on: Pseudomonas aeruginosa ATCC 27853
[3] = tested on: Streptococcus thermophilus YM-C
[4] = tested on: Lacticaseibacillus rhamnosus 7469
[5] = tested on: Staphylococcus epidermidis ATCC 12228
[6] = tested on: Staphylococcus aureus ATCC 29213
[7] = tested on: Escherichia coli UB1005
[8] = tested on: Salmonella enterica subsp. enterica serovar Typhimurium C77-31
[9] = tested on: Salmonella enterica subsp. enterica serovar Typhimurium ATCC 14028
[10] = tested on: Streptococcus agalactiae CICC 10465
[11] = tested on: Staphylococcus aureus ATCC 25923
[12] = tested on: Escherichia coli 078
[13] = tested on: Escherichia coli ATCC 25922
[14] = tested on: Streptococcus agalactiae
[15] = tested on: Micrococcus luteus A270
[16] = tested on: Salmonella enterica subsp. enterica serovar Enteritidis
[17] = tested on: Escherichia coli
[18] = tested on: Listeria innocua
[19] = tested on: Staphylococcus aureus SAP 0017
[20] = tested on: Staphylococcus epidermidis C621
[21] = tested on: Enterococcus faecalis C625
[22] = tested on: Escherichia coli DC2
[23] = tested on: Pseudomonas aeruginosa H187
[24] = tested on: Pseudomonas aeruginosa H188
[25] = tested on: Salmonella typhimurium C587
[26] = tested on: Bacillus subtilis C971
[27] = tested on: Corynebacterium xerosis C875
[28] = tested on: Salmonella typhimurium C610
[29] = tested on: Pseudomonas aeruginosa Ps4

Compound: CC[C@H](C)[C@H](NC(=O)[C@H](CC(C)C)NC(=O)[C@@H](NC(=O)[C@@H](N)CC(=O)O)[C@@H](C)CC)C(=O)N[C@H](C(=O)N[C@H](C(=O)NCC(=O)NCC(=O)N[C@@H](CCCN=C(N)N)C(=O)N[C@@H](CCCN=C(N)N)C(N)=O)C(C)C)[C@@H](C)CC [DILIIVGGRR]
MIC [1]: ≥ 64 µM | MIC [2]: > 64 µM | MIC [3]: ≥ 64 µM | MIC [4]: ≥ 64 µM | MIC [5]: > 64 µM | MIC [6]: > 64 µM | MIC [7]: ≥ 64 µM | MIC [8]: ≥ 64 µM | MIC [9]: > 64 µM | MIC [10]: ≥ 64 µM | MIC [11]: > 64 µM | MIC [12]: ≥ 64 µM | MIC [13]: > 64 µM | MIC [14]: ≥ 64 µM

Compound: CC[C@H](C)[C@H](NC(=O)[C@H](C)NC(=O)[C@H](CCCCN)NC(=O)[C@H](CC(C)C)NC(=O)[C@H](C)NC(=O)[C@@H](NC(=O)[C@H](Cc1cnc[nH]1)NC(=O)[C@H](CC(C)C)NC(=O)[C@@H](NC(=O)[C@@H](NC(=O)[C@H](CCCCN)NC(=O)[C@@H](NC(=O)[C@H](C)NC(=O)[C@H](CCCCN)NC(=O)[C@H](CCCCN)NC(=O)[C@H](Cc1ccccc1)NC(=O)[C@@H](NC(=O)[C@H](CCCCN)NC(=O)[C@H](CC(C)C)NC(=O)[C@H](Cc1ccccc1)NC(=O)[C@H](CO)NC(=O)[C@H](CCCCN)NC(=O)[C@H](Cc1c[nH]c2ccccc12)NC(=O)[C@H](CCCCN)NC(C)=O)[C@@H](C)O)C(C)C)[C@@H](C)O)C(C)C)[C@@H](C)O)C(=O)N[C@@H](CO)C(=O)N[C@@H](CO)C(N)=O [KWKSFLKTFKKAVKTVLHTALKAISS]
MIC [19]: 5.4 µM (≈ 16.2 µg/mL) | MIC [7]: 3.41 µM (≈ 10.2 µg/mL) | MIC [20]: 2.16 µM (≈ 6.49 µg/mL) | MIC [21]: 10.8 µM (≈ 32.4 µg/mL) | MIC [22]: 1.35 µM (≈ 4.06 µg/mL) | MIC [23]: 8.58 µM (≈ 25.8 µg/mL) | MIC [24]: 10.8 µM (≈ 32.4 µg/mL) | MIC [11]: 10.8 µM (≈ 32.4 µg/mL) | MIC [25]: 8.58 µM (≈ 25.8 µg/mL) | MIC [26]: 1.08 µM (≈ 3.24 µg/mL) | MIC [27]: 1.35 µM (≈ 4.06 µg/mL) | MIC [28]: 2.7 µM (≈ 8.11 µg/mL)

Compound: CC[C@H](C)[C@H](NC(=O)[C@H](CC(N)=O)NC(=O)[C@H](CCCN=C(N)N)NC(=O)[C@H](Cc1c[nH]c2ccccc12)NC(=O)[C@@H](N)Cc1ccccc1)C(=O)N[C@@H](CCCN=C(N)N)C(=O)N[C@@H](CCCCN)C(=O)N[C@H](C(=O)N[C@@H](CCCN=C(N)N)C(N)=O)C(C)C [FWRNIRKVR]
MIC [29]: ≥ 196 µM

Compound: CC[C@H](C)[C@H](NC(=O)[C@H](C)NC(=O)[C@H](CCCCN)NC(=O)[C@H](CC(C)C)NC(=O)[C@H](C)NC(=O)[C@@H](NC(=O)[C@H](Cc1cnc[nH]1)NC(=O)[C@H](CC(C)C)NC(=O)[C@@H](NC(=O)[C@@H](NC(=O)[C@H](CCCCN)NC(=O)[C@H](CC(C)C)NC(=O)[C@H](C)NC(=O)[C@H](CO)NC(=O)[C@H](CCCCN)NC(=O)[C@H](Cc1ccccc1)NC(=O)[C@@H](NC(=O)[C@H](CCCCN)NC(=O)[C@H](CC(C)C)NC(=O)[C@H](Cc1ccccc1)NC(=O)[C@H](CO)NC(=O)[C@H](CCCCN)NC(=O)[C@H](Cc1c[nH]c2ccccc12)NC(=O)[C@H](CCCCN)NC(C)=O)[C@@H](C)O)[C@@H](C)O)C(C)C)[C@@H](C)O)C(=O)N[C@@H](CO)C(=O)N[C@@H](CO)C(N)=O [KWKSFLKTFKSALKTVLHTALKAISS]
MIC [2]: 8 µM (≈ 23.8 µg/mL) | MIC [19]: 8.66 µM (≈ 25.8 µg/mL) | MIC [5]: 2 µM (≈ 5.95 µg/mL) | MIC [7]: 2.18 µM (≈ 6.49 µg/mL) | MIC [20]: 2.73 µM (≈ 8.11 µg/mL) | MIC [21]: 10.9 µM (≈ 32.4 µg/mL) | MIC [22]: 1.7 µM (≈ 5.07 µg/mL) | MIC [23]: 4.33 µM (≈ 12.9 µg/mL) | MIC [24]: 10.9 µM (≈ 32.4 µg/mL) | MIC [11]: 10.9 µM and 8 µM | MIC [25]: 10.9 µM (≈ 32.4 µg/mL) | MIC [26]: 1.09 µM (≈ 3.24 µg/mL) | MIC [27]: 0.852 µM (≈ 2.53 µg/mL) | MIC [13]: 4 µM (≈ 11.9 µg/mL) | MIC [28]: 3.44 µM (≈ 10.2 µg/mL)

Compound: CC[C@H](C)[C@H](NC(=O)[C@H](CC(C)C)NC(=O)[C@@H](NC(=O)[C@@H](N)CC(=O)O)[C@@H](C)CC)C(=O)N[C@H](C(=O)N[C@H](C(=O)NCC(=O)NCC(=O)N[C@@H](CCCCN)C(=O)N[C@@H](CCCN=C(N)N)C(=O)N[C@@H](CCCN=C(N)N)C(=O)N[C@@H](CCCCN)C(=O)N[C@@H](CCCCN)C(=O)N[C@@H](CCCN=C(N)N)C(=O)N[C@@H](CCCN=C(N)N)C(=O)N[C@@H](CCCN=C(N)N)C(N)=O)C(C)C)[C@@H](C)CC [DILIIVGGKRRKKRRR]
MIC [1]: 8 µM (≈ 15.7 µg/mL) | MIC [2]: 4 µM (≈ 7.85 µg/mL) | MIC [3]: ≥ 64 µM | MIC [4]: ≥ 64 µM | MIC [5]: 8 µM (≈ 15.7 µg/mL) | MIC [6]: 4 µM (≈ 7.85 µg/mL) | MIC [7]: 4 µM (≈ 7.85 µg/mL) | MIC [8]: 8 µM (≈ 15.7 µg/mL) | MIC [9]: 8 µM (≈ 15.7 µg/mL) | MIC [10]: 2 µM (≈ 3.93 µg/mL) | MIC [11]: 4 µM (≈ 7.85 µg/mL) | MIC [12]: 8 µM (≈ 15.7 µg/mL) | MIC [13]: 4 µM (≈ 7.85 µg/mL) | MIC [14]: 4 µM (≈ 7.85 µg/mL)

Further lines, results first:

MIC [15]: ≥ 38 µM | MIC [16]: ≥ 38 µM | MIC [17]: 54 µM (≈ 143 µg/mL) | MIC [18]: 27 µM (≈ 71.7 µg/mL)
Compound: CC(C)C[C@H](NC(=O)[C@@H](N)C(C)C)C(=O)N[C@@H](CO)C(=O)N[C@@H](C)C(=O)N[C@@H](C)C(=O)N[C@@H](CC(=O)O)C(=O)N[C@@H](CCCCN)C(=O)NCC(=O)N[C@@H](CC(N)=O)C(=O)N[C@H](C(=O)N[C@@H](CCCCN)C(=O)N[C@@H](C)C(=O)N[C@@H](C)C(=O)N[C@@H](Cc1c[nH]c2ccccc12)C(=O)NCC(=O)N[C@@H](CCCCN)C(=O)N[C@H](C(=O)NCC(=O)NCC(=O)N[C@@H](Cc1cnc[nH]1)C(=O)N[C@@H](C)C(=O)N[C@@H](C)C(=O)N[C@@H](CCC(=O)O)C(=O)N[C@@H](Cc1ccc(O)cc1)C(=O)NCC(=O)N[C@@H](C)C(=O)N[C@@H](CCC(=O)O)C(=O)O)C(C)C)C(C)C [VLSAADKGNVKAAWGKVGGHAAEYGAE]

MIC [29]: ≥ 173 µM
Compound: CC(C)C[C@H](NC(=O)[C@H](CCCN=C(N)N)NC(=O)[C@H](CC(C)C)NC(=O)[C@H](CC(N)=O)NC(=O)[C@H](CCCN=C(N)N)NC(=O)[C@H](CCC(N)=O)NC(=O)[C@H](Cc1c[nH]c2ccccc12)NC(=O)[C@@H](N)Cc1ccccc1)C(=O)N[C@@H](CCCN=C(N)N)C(=O)N[C@@H](CCCN=C(N)N)C(N)=O [FWQRNLRLRR]

MIC [15]: 1 µM (≈ 1.24 µg/mL) | MIC [16]: 9 µM (≈ 11.1 µg/mL) | MIC [17]: 9 µM (≈ 11.1 µg/mL) | MIC [18]: 1 µM (≈ 1.24 µg/mL)
Compound: C[C@@H](O)[C@H](NC(=O)[C@H](CCCCN)NC(=O)[C@@H](NC(=O)[C@@H](NC(=O)[C@@H]1CCCN1C(=O)[C@@H](N)Cc1ccccc1)[C@@H](C)O)[C@@H](C)O)C(=O)N[C@@H](Cc1ccc(O)cc1)C(=O)N[C@@H](Cc1ccccc1)C(=O)N1CCC[C@H]1C(=O)N[C@@H](Cc1cnc[nH]1)C(=O)O [FPTTKTYFPH]
